Reference: the NIST ThermoML archive (doi:10.1021/acs.jced.6b00812)
± gives the expanded uncertainty stated by the source.

Assay: molar heat capacity at constant pressure; mn = molality of the nth substance listed, in mol/kg
Conditions: 100 kPa, Liquid, Small sample (50 mg) DSC

[Ca+2].[Cl-].[Cl-] [calcium chloride] + O
molar heat capacity at constant pressure [J/K/mol]
Conditions | m1 = 0.49 | m1 = 1.17 | m1 = 1.83 | m1 = 2.51 | m1 = 3.14 | m1 = 3.8 | m1 = 4.41 | m1 = 5.1 | m1 = 5.76 | m1 = 6.39
168.15 K | – | – | – | – | – | 56.81 ± 1.4 | 58.42 ± 1.5 | – | – | –
178.15 K | – | – | – | – | – | 57.77 ± 1.4 | 59.16 ± 1.5 | – | – | –
188.15 K | – | – | – | – | – | 58.49 ± 1.4 | 59.66 ± 1.5 | – | – | –
198.15 K | – | – | – | – | – | 59.45 ± 1.4 | 60.4 ± 1.5 | – | – | –
208.15 K | – | – | – | – | – | 60.41 ± 1.4 | 61.15 ± 1.5 | – | – | –
218.15 K | – | – | – | – | – | 61.37 ± 1.4 | 61.9 ± 1.5 | – | – | –
228.15 K | – | – | – | – | 62.08 ± 1.6 | 62.09 ± 1.4 | 62.64 ± 1.5 | – | – | –
238.15 K | – | – | – | 63.47 ± 1.5 | 63 ± 1.6 | 63.05 ± 1.4 | 63.39 ± 1.5 | 64.08 ± 1.6 | – | –
248.15 K | – | 68.18 ± 1.6 | 65.68 ± 1.7 | 64.35 ± 1.5 | 63.92 ± 1.6 | 63.77 ± 1.7 | 64.13 ± 1.5 | 64.6 ± 1.6 | – | –
258.15 K | 72.68 ± 1.9 | 68.77 ± 1.8 | 66.51 ± 1.7 | 65.23 ± 1.5 | 64.61 ± 1.6 | 64.48 ± 1.7 | 64.63 ± 1.5 | 65.37 ± 1.6 | 66.09 ± 1.6 | –
268.15 K | 72.49 ± 1.9 | 69.37 ± 1.8 | 67.14 ± 1.7 | 65.89 ± 1.5 | 65.3 ± 1.6 | 65.2 ± 1.7 | 65.38 ± 1.5 | 65.89 ± 1.6 | 66.62 ± 1.6 | –
278.15 K | 72.68 ± 1.9 | 69.77 ± 1.8 | 67.77 ± 1.7 | 66.55 ± 1.5 | 65.76 ± 1.6 | 65.68 ± 1.7 | 65.87 ± 1.7 | 66.66 ± 1.6 | 67.42 ± 1.6 | 67.93 ± 1.7
288.15 K | 72.68 ± 1.9 | 69.97 ± 1.8 | 68.19 ± 1.7 | 66.99 ± 1.5 | 66.22 ± 1.6 | 66.16 ± 1.7 | 66.37 ± 1.7 | 67.18 ± 1.6 | 67.96 ± 1.6 | 68.2 ± 1.7
298.15 K | 72.87 ± 1.9 | 70.37 ± 1.8 | 68.61 ± 1.7 | 67.43 ± 1.8 | 66.91 ± 1.6 | 66.64 ± 1.7 | 67.12 ± 1.7 | 67.7 ± 1.6 | 68.49 ± 1.6 | 68.76 ± 1.7

[Cl-].[Cl-].[Mg+2] [magnesium chloride] + O
molar heat capacity at constant pressure [J/K/mol]
Conditions | m1 = 0.58 | m1 = 1.12 | m1 = 1.67 | m1 = 2.19 | m1 = 2.74 | m1 = 3.36 | m1 = 3.88 | m1 = 4.46 | m1 = 5.04 | m1 = 5.63
168.15 K | – | – | – | – | – | 49.33 ± 1.1 | 49.35 ± 1.2 | – | – | –
178.15 K | – | – | – | – | – | 51.34 ± 1.3 | 51.42 ± 1.2 | 51.55 ± 1.2 | – | –
188.15 K | – | – | – | – | – | 53.36 ± 1.3 | 53.27 ± 1.4 | 53.21 ± 1.4 | – | –
198.15 K | – | – | – | – | – | 55.38 ± 1.3 | 55.11 ± 1.4 | 54.88 ± 1.4 | – | –
208.15 K | – | – | – | – | – | 57.17 ± 1.3 | 56.72 ± 1.4 | 56.54 ± 1.4 | – | –
218.15 K | – | – | – | – | – | 58.74 ± 1.3 | 58.34 ± 1.4 | 57.97 ± 1.4 | 57.68 ± 1.5 | 57.28 ± 1.5
228.15 K | – | – | – | 62 ± 1.5 | 61.04 ± 1.5 | 60.09 ± 1.6 | 59.49 ± 1.4 | 59.15 ± 1.4 | 58.66 ± 1.5 | 58.54 ± 1.5
238.15 K | – | – | 65.07 ± 1.6 | 63.46 ± 1.5 | 62.34 ± 1.5 | 61.43 ± 1.6 | 60.87 ± 1.6 | 60.34 ± 1.4 | 59.88 ± 1.5 | 59.54 ± 1.5
248.15 K | – | 68.59 ± 1.8 | 65.88 ± 1.6 | 64.3 ± 1.7 | 63.42 ± 1.5 | 62.33 ± 1.6 | 61.8 ± 1.6 | 61.29 ± 1.4 | 60.61 ± 1.5 | 60.55 ± 1.5
258.15 K | 72.24 ± 1.7 | 68.98 ± 1.8 | 66.69 ± 1.6 | 65.35 ± 1.7 | 64.29 ± 1.5 | 63.23 ± 1.6 | 62.49 ± 1.6 | 62 ± 1.4 | 61.59 ± 1.5 | 61.3 ± 1.5
268.15 K | 72.24 ± 1.7 | 69.57 ± 1.8 | 67.5 ± 1.6 | 66.19 ± 1.7 | 65.16 ± 1.5 | 64.12 ± 1.6 | 63.41 ± 1.6 | 62.72 ± 1.7 | 62.08 ± 1.5 | 62.06 ± 1.5
278.15 K | 72.24 ± 1.7 | 69.96 ± 1.8 | 67.9 ± 1.6 | 66.61 ± 1.7 | 65.59 ± 1.5 | 64.57 ± 1.6 | 63.87 ± 1.6 | 63.19 ± 1.7 | 62.81 ± 1.5 | 62.56 ± 1.5
288.15 K | 72.43 ± 1.7 | 70.16 ± 1.8 | 68.31 ± 1.6 | 67.23 ± 1.7 | 66.02 ± 1.7 | 65.02 ± 1.6 | 64.33 ± 1.6 | 63.67 ± 1.7 | 63.3 ± 1.5 | 63.06 ± 1.5
298.15 K | 72.43 ± 1.7 | 70.55 ± 1.8 | 68.71 ± 1.6 | 67.44 ± 1.7 | 66.45 ± 1.7 | 65.47 ± 1.6 | 64.79 ± 1.6 | 64.14 ± 1.7 | 63.55 ± 1.5 | 63.56 ± 1.5

[Cl-].[K+] [potassium chloride] + O
molar heat capacity at constant pressure [J/K/mol]
Conditions | m1 = 0.53 | m1 = 0.97 | m1 = 1.41 | m1 = 1.86 | m1 = 2.34 | m1 = 2.79 | m1 = 3.25 | m1 = 3.72 | m1 = 4.15 | m1 = 4.62
238.15 K | – | – | – | – | – | – | – | – | 65.84 ± 1.5 | –
248.15 K | – | – | – | 70.06 ± 1.8 | – | 68.17 ± 1.7 | 67.44 ± 1.7 | 66.86 ± 1.7 | 66.5 ± 1.5 | –
258.15 K | 74.76 ± 1.9 | 72.91 ± 1.7 | 71.45 ± 1.7 | 70.26 ± 1.8 | 69.43 ± 1.6 | 68.59 ± 1.7 | 68.08 ± 1.7 | 67.29 ± 1.7 | 66.94 ± 1.5 | –
268.15 K | 74.2 ± 1.9 | 72.72 ± 1.7 | 71.45 ± 1.7 | 70.46 ± 1.8 | 69.64 ± 1.6 | 68.79 ± 1.7 | 68.29 ± 1.7 | 67.72 ± 1.7 | 67.16 ± 1.8 | 66.63 ± 1.6
278.15 K | 73.83 ± 1.9 | 72.72 ± 1.7 | 71.64 ± 1.7 | 70.66 ± 1.8 | 69.84 ± 1.6 | 69 ± 1.7 | 68.5 ± 1.7 | 67.93 ± 1.7 | 67.38 ± 1.8 | 66.85 ± 1.6
288.15 K | 73.83 ± 1.9 | 72.72 ± 1.7 | 71.64 ± 1.7 | 70.66 ± 1.8 | 69.84 ± 1.6 | 69.21 ± 1.7 | 68.71 ± 1.7 | 67.93 ± 1.7 | 67.6 ± 1.8 | 67.08 ± 1.6
298.15 K | 73.83 ± 1.9 | 72.72 ± 1.7 | 71.64 ± 1.7 | 70.86 ± 1.8 | 70.04 ± 1.6 | 69.42 ± 1.7 | 68.71 ± 1.7 | 68.15 ± 1.7 | 67.6 ± 1.8 | 67.08 ± 1.6
